The subject of series [1] is SUDHL5. Description: Antiproliferation assay SUDHL5 (Assay 7). Type of series: cell-based. As to conditions: SUDHL5 cells, CellTiter-Glo, median, read-out: IC50 Antiproli SUDHL5 [M] (median). Here is the method: (§1) Assessment of the Anti-Proliferative Effect of Compounds in Different Cell Lines
(§2) The impact of compounds on the proliferation of different cell lines was assessed using the CellTiter-Glo® Luminescent Cell Viability reagent from Promega (G7573).
(§3) In parallel, cells were plated in a reference (day 0) plate for time zero determination.
(§4) Rim wells were excluded. The cells were incubated for 72 h hours in a humidified incubator at 37° C. The day 0 plate was measured by adding 30 μL/well of CTG solution (CellTiter-Glo® Luminescent Cell Viability reagent, Promega G7573) to time zero wells in the reference plate followed by a 10 minutes incubation and luminescence reading at 0.1 ms. using the PHERAstar FS microplate reader (BMG Labtech).
(§5) After 72 h incubation, the treated plates were measured in the same way as the day 0 plate mentioned above.

In another series the target is MCL-1 (Homo sapiens (Human), UniProt Q07820, K194A/K197A/R201A). Description: Protein-protein interaction assay MCL-1/Noxa BH3 peptide (MCL-1 assay), TR-FRET. As to conditions: MCL-1/Noxa BH3 peptide TR-FRET; median. Type of series: binding. Here is the method: Protein-Protein Interaction Assay: MCL-1/Noxa BH3 Peptide (MCL-1 Assay)
The dose-dependent inhibition by the compounds described in this invention of the interaction between MCL-1 and the BH3 domain of Noxa (both human) was determined using a steady state binding competition assay with time-resolved fluorescence energy transfer (TR-FRET) readout. For that purpose MCL-1 (amino acids 173-321, N-terminal fused to Maltose Binding Protein (MBP) SEQ ID 1)) and a synthetic Noxa BH3-derived peptide of sequence Biotin-PEG2-PEG2-PAELEVE-Nva-ATQLRRFGDKLNFRQKLL-amide (SEQ ID 2) served as protein receptor and tracer ligand respectively. The MBP-MCL-1 was purchased from Beryllium (Bedford, Mass., USA). The expression and purification of this protein construct has been described elsewhere (DOI:10.1371/journal.pone.0125010). The Noxa BH3-derived peptide can be obtained from e.g. Biosyntan (Berlin, Germany).
In the assay 11 different concentrations of each compound (0.1 nM, 0.33 nM, 1.1 nM, 3.8 nM, 13 nM, 44 nM, 0.15 μM, 0.51 μM, 1.7 μM, 5.9 μM and 20 μM) were typically measured as duplicates in the same microtiter plate. For that, 100-fold concentrated DMSO solutions were prepared by serial dilutions (1:3.4) of a 2 mM stock solution in a clear, 384-well microtiter plate (Greiner Bio-One, Frickenhausen, Germany). From there, 50 nl were transferred in a dark test plate (Greiner Bio-One, Frickenhausen, Germany). The assay was initiated by addition of 2 μl of a 2,5-fold concentrated MBP-MCL-1 solution (usually for a 1 nM end concentration in 5 μl reaction volume) in aqueous assay buffer [50 mM Tris/HCl pH 7, 100 mM sodium chloride (NaCl), 50 mM potassium fluoride (KF), 0.005% Tween-20, 2 mM DTT, 0.1% bovine gamma globulin (BGG)] to the compounds in the assay plate. This was followed by a 10-minute incubation step at 22° C. for pre-equilibration of the putative complex between MBP-MCL-1 and the compounds. After that, 3 μl of a 1.67-fold concentrated solution (in assay buffer) consisting of Noxa BH3-derived peptide (1 nM end concentration) and TR-FRET detection reagents [1.67 nM anti-MBP-Eu cryptate and 1.67 nM streptavidin-XL665 (both from Cisbio Bioassays, Codolet, France)], were added.
The mixture was incubated in the dark for one hour at 22° C. and then overnight at 4° C. The formation of MCL-1/Noxa complexes was determined by measuring the resonance energy transfer of the anti-MBP-Eu-cryptate antibody to the streptavidin-XL665 present in the reaction. For that purpose, the fluorescence emission at 620 nm and 665 nm after excitation at 330-350 nm was measured in a TR-FRET measuring instrument, for instance a Rubystar or a Pherastar (both from BMG Lab Technologies, Offenburg, Germany) or a Viewlux (Perkin-Elmer). The ratio of the emission at 665 nm and at 622 nm was used as indicator of the amount of MCL-1/NOXA complexes present.
The resulting data (ratio) were normalized, taking 0% inhibition as the mean value of control measurements (usually 32 data points) where all reagents were included. In this case 50 nl DMSO were used instead of compounds. A 100% inhibition corresponded to the mean value of control measurements (usually 32 data points) where all reagents except MCL-1 were included. IC50 values were determined by regression analysis based on a 4 parameter equation (minimum, maximum, IC50, Hill; Y=Max+(Min−Max)/(1+(X/IC50)^Hill) using the Screener Software (Genedata).

The test system of the next series is MV-4-11. Description: Antiproliferation assay MV-4-11 (Assay 7). The series is classed as cell-based. As to conditions: MV-4-11 cells, CellTiter-Glo, single determinations, read-out: IC50 Antiproli MV-4-11. The procedure:
as §1, §2, §3, §4, §5

Series [2] deals with SUDHL10. The experiment in a line: Induction of caspase-3/7 activity, SUDHL10 (Assay 4). As to conditions: SUDHL10 cells. Type of series: cell-based. Here is the method: (§6) Induction of Caspase-3/7 Activity upon Treatment of Cells with Selected Compounds
(§7) The BH3-domain of MCL-1 sequesters pro-apoptotic proteins, thereby inhibiting apoptosis. In contrast, MCL-1 inhibitors are expected to antagonize this effect leading to an increase in apoptosis, which can be determined by measuring the activity of caspase-3/7.
(§8) The activity of caspase-3/7 was determined in DLBCL (Diffuse large B-cell lymphoma) cell lines (SUDHL5 and SUDHL10) upon treatment with different compounds, using the Caspase-Glo® 3/7 reagent from Promega (G8092).
(§9) Rim wells were excluded. The cells were incubated for 3 h hours in a humidified incubator at 37° C.
(§10) For the evaluation of the results, the background measured with “medium-only” was subtracted from all other values. […] The Bella DRC Master Sheet was used to calculate EC50s, with fixed C0=1 and Cl=plateau/max induction for the reference compound.

The next series has as its system AMO-1. The experiment in a line: Antiproliferation assay AMO-1 (Assay 7). Type of series: cell-based. Conditions: AMO-1 cells, CellTiter-Glo, single determinations, read-out: IC50 Antiproli AMO-1. Here is the method:
as §1, §2, §3, §4, §5

Series [3] concerns SUDHL10. The experiment in a line: Induction of cytotoxicity, SUDHL10 (Assay 6). As to conditions: read-out: IC50 Cytotox SUDHL10 [M] (median), SUDHL10 cells, 5 h, CellTiter-Glo.
For series [4], the system named is SUDHL5. Description: Induction of caspase-3/7 activity, SUDHL5 (Assay 4). Type of series: cell-based. Conditions: SUDHL5 cells. Here is the method: as §6, §7, §8, §9, §10
Series [5] has as its system SUDHL5. The experiment in a line: Induction of cytotoxicity, SUDHL5 (Assay 6). As to conditions: read-out: IC50 Cytotox SUDHL5 [M] (median), SUDHL5 cells, 5 h, CellTiter-Glo.
In another series the test system is A2780. The experiment in a line: Antiproliferation assay A2780 (Assay 7). The series is classed as cell-based. Conditions: A2780 cells, 72 h, CellTiter-Glo; single determinations; listed as 04; read-out: IC50 Antiproli A2780. Here is the method: as §1, §2, §3, §4, §5

The structures appear in SMILES notation. Structures can show the parent of a compound that is named as a salt. Where two headings read alike, the source gives them in different places.

MCL-1, sequence (Q07820 whole entry K194A/K197A/R201A, looked up, the tested form may be a part): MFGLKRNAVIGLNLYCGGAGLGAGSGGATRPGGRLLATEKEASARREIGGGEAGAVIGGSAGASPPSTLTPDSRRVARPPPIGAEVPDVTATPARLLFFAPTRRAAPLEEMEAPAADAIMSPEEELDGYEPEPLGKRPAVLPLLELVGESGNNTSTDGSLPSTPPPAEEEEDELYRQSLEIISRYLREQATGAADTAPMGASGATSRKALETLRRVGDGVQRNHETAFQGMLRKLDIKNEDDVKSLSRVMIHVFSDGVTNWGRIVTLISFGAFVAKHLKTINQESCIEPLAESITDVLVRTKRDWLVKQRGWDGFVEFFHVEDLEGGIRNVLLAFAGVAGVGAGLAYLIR

Take `CCc1nn(C)c2c1-c1c(F)ccc3c(CCCOc4ccc(F)c5ccccc45)c(C(=O)O)n(c13)CCCCOC2` (racemic) [Example 41, (rac)-12-ethyl-13-fluoro-1-(3-((4-fluoronaphthalen-1-yl)oxy)propyl)-10-methyl-4,5,6,7,9,10-hexahydropyrazolo[4′,3′:9,10][1]oxa[6]azacycloundecino[8,7,6-hi]indole-2-carboxylic acid]: the IC50 in the series on SUDHL5 [1] (Homo sapiens, SU-DHL-5, 72 h) was 2e-06 M; on MCL-1, 0.002 µM; in the series on MV-4-11 (Homo sapiens, MV4-11, 72 h), 11 µM; in the series with MV-4-11 (72 h) it was 15 µM; with AMO-1 (72 h) it was 12.8 µM; in the series with AMO-1 (Homo sapiens, AMO1, 72 h), 15.2 µM. In addition, the IC50 in the series on SUDHL10 [3] (Homo sapiens, SU-DHL10, 5 h) was 7.1e-06 M; in the series on SUDHL5 [5] (Homo sapiens, SU-DHL-5, 5 h), 3e-06 M. Moreover, the EC50 in the series on SUDHL10 [2] (Homo sapiens, SU-DHL10, 3 h, Caspase-Glo 3/7, median) stood at 14 µM; in the series with SUDHL5 [4] (Homo sapiens, SU-DHL-5, 3 h, Caspase-Glo 3/7, median) it was 2.2 µM.

On to `Cc1c2c(nn1C)COCCCCn1c(C(=O)O)c(CCCOc3cccc4ccccc34)c3ccc(F)c-2c31` (single isomer, unassigned; enantiomer 2) [Example 4, 4-fluoro-2,3-dimethyl-7-[3-(naphthalen-1-yloxy)propyl]-2,10,11,12,13,15-hexahydropyrazolo-[4′,3′:9,10][1,6]oxazacycloundecino[8,7,6-hi]indole-8-carboxylic acid-N-ethylethanamine salt (enantiomer 2)], for which the IC50 with SUDHL5 [1] (72 h) is more than 3.3e-05 M; on MCL-1, 0.065 µM; in the series on MV-4-11 (72 h, listed as 04), more than 33 µM; in the series on A2780 it was more than 33 µM; in the series with SUDHL5 [5], more than 3.3e-05 M. The EC50 in the series with SUDHL5 [4] (3 h, Caspase-Glo 3/7, median) is more than 33 µM.

On to `Cc1c2c(nn1C)COCCCCn1c(C(=O)O)c(CCCOc3ccc(F)c4ccccc34)c3ccc(F)c-2c31` (single isomer, unassigned; enantiomer 2) [Example 17, 4-fluoro-7-{3-[(4-fluoronaphthalen-1-yl)oxy]propyl}-2,3-dimethyl-2,10,11,12,13,15-hexahydro-pyrazolo[4′,3′:9,10][1,6]oxazacycloundecino[8,7,6-hi]indole-8-carboxylic acid (enantiomer 2)], for which the IC50 with SUDHL5 [1] (72 h) was 1.1e-05 M; at MCL-1 it was 0.06 µM; with MV-4-11 (72 h), 20.8 µM; in the series with AMO-1 (72 h), more than 33 µM; in the series with SUDHL10 [3], more than 3.3e-05 M; in the series on SUDHL5 [5] it was more than 3.3e-05 M. For the same compound, the EC50 was more than 33 µM with SUDHL10 [2] (3 h, Caspase-Glo 3/7, median) and more than 33 µM with SUDHL5 [4] (3 h, Caspase-Glo 3/7, median).

For the compound `CCc1c2c(nn1C)COCCCCn1c(C(=O)O)c(CCCOc3ccc(F)c4ccccc34)c3ccc(F)c-2c31` (single isomer, unassigned; enantiomer 2) [Example 28, 3-ethyl-4-fluoro-7-{3-[(4-fluoronaphthalen-1-yl)oxy]propyl}-2-methyl-2,10,11,12,13,15-hexahydropyrazolo[4′,3′:9,10][1,6]oxazacycloundecino[8,7,6-hi]indole-8-carboxylic acid-N-ethylethanamine salt (enantiomer 2)], the IC50 in the series on SUDHL5 [1] (72 h) was 1.2e-05 M; on MCL-1 it was 0.065 µM; in the series on MV-4-11 (72 h), 13.8 µM; in the series with AMO-1 (72 h), more than 33 µM; with SUDHL10 [3], more than 3.3e-05 M; in the series on SUDHL5 [5] it was 1.8e-05 M. The EC50 in the series with SUDHL10 [2] (3 h, Caspase-Glo 3/7, median) is more than 33 µM; in the series with SUDHL5 [4] (3 h, Caspase-Glo 3/7, median) it was more than 33 µM.

As for `CCc1nn(C)c2c1-c1c(F)ccc3c(CCCOc4ccc(F)c5ccccc45)c(C(=O)O)n(c13)CCCCOC2` (single isomer, unassigned; enantiomer 2) [Example 43, 3-ethyl-4-fluoro-7-{3-[(4-fluoronaphthalen-1-yl)oxy]propyl}-1-methyl-1,10,11,12,13,15-hexahydropyrazolo[4′,3′:9,10][1,6]oxazacycloundecino[8,7,6-hi]indole-8-carboxylic acid (enantiomer 2)], the IC50 is 1.5e-05 M in the series on SUDHL5 [1] (72 h); 0.11 µM against MCL-1; 12.5 µM with MV-4-11 (72 h); more than 33 µM in the series on AMO-1 (72 h); more than 3.3e-05 M in the series on SUDHL10 [3]; more than 3.3e-05 M in the series on SUDHL5 [5]. Moreover, the EC50 in the series on SUDHL10 [2] (3 h, Caspase-Glo 3/7, median) was more than 33 µM; in the series with SUDHL5 [4] (3 h, Caspase-Glo 3/7, median) it was more than 33 µM.

Values taken from US11286263B2, “Macrocyclic fluorine substituted indole derivatives” (The Broad Institute, Inc., priority 2017, dated 2022).
